“Also recorded” adds a separate entry of the source.
Tests used:
[1] = molecular target: T1, κ-opioid receptor (KOR) (Homo sapiens, UniProt P41145); settings: previously observed; cited from earlier work
[2] = molecular target: hKOR receptor (Homo sapiens, UniProt P41145); test: cell-based
[3] = molecular target: T1, κ-opioid receptor (KOR); assay type: binding
[4] = molecular target: δ-opioid receptor (DOR) (Homo sapiens, UniProt P41143); test: Radioligand binding at DOR against [3H]DADLE
δ-opioid receptor (DOR), sequence (P41143 whole entry): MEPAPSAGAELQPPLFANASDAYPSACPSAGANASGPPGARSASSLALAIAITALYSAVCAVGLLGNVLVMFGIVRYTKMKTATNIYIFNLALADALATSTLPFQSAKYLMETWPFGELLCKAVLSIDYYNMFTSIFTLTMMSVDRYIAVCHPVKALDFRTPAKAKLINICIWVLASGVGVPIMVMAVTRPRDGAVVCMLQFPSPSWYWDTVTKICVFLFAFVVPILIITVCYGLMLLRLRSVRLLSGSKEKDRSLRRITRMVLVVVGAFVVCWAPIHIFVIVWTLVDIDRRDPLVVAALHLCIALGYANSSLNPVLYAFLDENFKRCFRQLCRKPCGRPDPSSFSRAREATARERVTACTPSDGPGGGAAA

hKOR receptor, sequence (P41145 whole entry): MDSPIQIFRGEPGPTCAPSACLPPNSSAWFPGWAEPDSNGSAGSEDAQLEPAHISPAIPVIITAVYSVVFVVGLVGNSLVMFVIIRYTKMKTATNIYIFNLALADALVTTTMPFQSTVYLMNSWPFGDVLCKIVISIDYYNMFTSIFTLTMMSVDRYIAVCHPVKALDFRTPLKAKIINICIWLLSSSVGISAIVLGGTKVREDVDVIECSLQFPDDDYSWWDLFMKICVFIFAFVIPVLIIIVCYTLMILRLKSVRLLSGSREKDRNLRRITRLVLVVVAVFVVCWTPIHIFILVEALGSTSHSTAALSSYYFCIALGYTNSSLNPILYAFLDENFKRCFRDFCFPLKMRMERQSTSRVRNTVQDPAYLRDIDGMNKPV
T1 sequence (P41145 whole entry): as above

| Compound | Selectivity DOR/KOR [3] | Selectivity MOR/KOR [3] | also measured |
| --- | --- | --- | --- |
| COC(=O)[C@@H]1C[C@H](OC(=O)CSC#N)C(=O)[C@H]2[C@@]1(C)CC[C@H]1C(=O)O[C@H](c3ccoc3)C[C@]21C [RB-64, 22-thiocyanatosalvinorin A] |  |  | wash-resistant irreversible binding at KOR [1]: wash-resistant irreversible binding |
| COC(=O)[C@@H]1C[C@H](OC(=O)/C=C/c2ccccc2)C(=O)[C@H]2[C@@]1(C)CC[C@H]1C(=O)O[C@H](c3ccoc3)C[C@]21C [5a, 2-O-Cinnamoylsalvinorin B] |  |  | IC50 [2]: 7 nM; fold lower cAMP inhibition level (efficacy) than 1 [2]: 20 ×; fold increased KOR affinity compared to 4a [3]: 2 fold |
| COC(=O)[C@@H]1C[C@H](OC(=O)/C=C/c2cc(C(F)(F)F)ccc2C(F)(F)F)C(=O)[C@H]2[C@@]1(C)CC[C@H]1C(=O)O[C@H](c3ccoc3)C[C@]21C [5l, 2-O-[2″,5″-bis(Trifluoromethyl)cinnamoyl]salvinorin B] | <0.58 |  | affinity for KOR (in words) [3]: no substantial affinity |
| COC(=O)[C@@H]1C[C@H](OC(=O)/C=C/c2ccccc2C(F)(F)F)C(=O)[C@H]2[C@@]1(C)CC[C@H]1C(=O)O[C@H](c3ccoc3)C[C@]21C [5j, 2-O-(2″-Trifluoromethylcinnamoyl)salvinorin B] | >77 | >77 |  |
| COC(=O)[C@@H]1C[C@H](OC(=O)/C=C/c2ccccc2[N+](=O)[O-])C(=O)[C@H]2[C@@]1(C)CC[C@H]1C(=O)O[C@H](c3ccoc3)C[C@]21C [5h, 2-O-(2″-Nitrocinnamoyl)salvinorin B] | >67 | >67 |  |
| COC(=O)[C@@H]1C[C@H](OC(=O)/C=C/c2ccc(OC)cc2OC)C(=O)[C@H]2[C@@]1(C)CC[C@H]1C(=O)O[C@H](c3ccoc3)C[C@]21C [5e, 2-O-(2″,4″-Dimethoxycinnamoyl)salvinorin B] | >62 | >62 |  |
| C/C=C(\C)C(=O)O[C@H]1C[C@@H](C(=O)OC)[C@]2(C)CC[C@H]3C(=O)O[C@H](c4ccoc4)C[C@]3(C)[C@H]2C1=O [4g, 2-O-(2′,3′-Dimethylacryloyl)salvinorin B] | >65 | >65 | fold reduced KOR affinity compared to 4a [3]: 8 fold |
| C=C(C)CC(=O)O[C@H]1C[C@@H](C(=O)OC)[C@]2(C)CC[C@H]3C(=O)O[C@H](c4ccoc4)C[C@]3(C)[C@H]2C1=O [4d, 2-O-(3′-Methylbut-3′-enoyl)salvinorin B] | >1666 |  | fold increased KOR affinity compared to 4a [3]: 3 fold |
| COC(=O)[C@@H]1C[C@H](OC(=O)/C=C/c2cc(OC)ccc2OC)C(=O)[C@H]2[C@@]1(C)CC[C@H]1C(=O)O[C@H](c3ccoc3)C[C@]21C [5d, 2-O-(2″,5″-Dimethoxycinnamoyl)salvinorin B] | >17 | >17 |  |
| COC(=O)[C@@H]1C[C@H](OC(=O)/C=C/c2ccccc2OC)C(=O)[C@H]2[C@@]1(C)CC[C@H]1C(=O)O[C@H](c3ccoc3)C[C@]21C [5b, 2-O-(2″-Methoxycinnamoyl)salvinorin B] | >154 | >154 |  |
| COC(=O)[C@@H]1C[C@H](OC(=O)/C=C/c2ccc3c(c2)OCO3)C(=O)[C@H]2[C@@]1(C)CC[C@H]1C(=O)O[C@H](c3ccoc3)C[C@]21C [5g, 2-O-(3″,4″-Dioxymethylenecinnamoyl)salvinorin B] | >31 |  |  |
| COC(=O)[C@@H]1C[C@H](OC(=O)C=C(C)C)C(=O)[C@H]2[C@@]1(C)CC[C@H]1C(=O)O[C@H](c3ccoc3)C[C@]21C [4c, 2-O-(3′,3′-Dimethylacryloyl)salvinorin B] |  |  | fold reduced KOR affinity compared to 4a [3]: 21 fold |
| C/C=C/C(=O)O[C@H]1C[C@@H](C(=O)OC)[C@]2(C)CC[C@H]3C(=O)O[C@H](c4ccoc4)C[C@]3(C)[C@H]2C1=O [4e, 2-O-Crotonoylsalvinorin B] | >395 |  |  |
| C=C(C)C(=O)O[C@H]1C[C@@H](C(=O)OC)[C@]2(C)CC[C@H]3C(=O)O[C@H](c4ccoc4)C[C@]3(C)[C@H]2C1=O [4b, 2-O-Methacryloylsalvinorin B] |  | >293 |  |
| COC(=O)[C@@H]1C[C@H](OC(=O)/C=C/c2cccnc2)C(=O)[C@H]2[C@@]1(C)CC[C@H]1C(=O)O[C@H](c3ccoc3)C[C@]21C [5m, 2-O-[3′-(3″-Pyridyl)acryloyl]salvinorin B] | <0.48 | <0.03 | affinity for KOR (in words) [3]: no substantial affinity |
| COC(=O)[C@@H]1C[C@H](OC(=O)/C=C/c2cc(OC)c(OC)c(OC)c2)C(=O)[C@H]2[C@@]1(C)CC[C@H]1C(=O)O[C@H](c3ccoc3)C[C@]21C [5f, 2-O-(3″,4″,5″-Trimethoxycinnamoyl)salvinorin B] |  |  | affinity for DOR (in words) [4]: no appreciable affinity; affinity for KOR (in words) [3]: no appreciable affinity; also recorded: no substantial affinity |
| C=CC(=O)O[C@H]1C[C@@H](C(=O)OC)[C@]2(C)CC[C@H]3C(=O)O[C@H](c4ccoc4)C[C@]3(C)[C@H]2C1=O [4a, 2-O-Acryloylsalvinorin B] | >552 |  | fold lower cAMP inhibition level (efficacy) than 1 [2]: 380 ×; fold reduced KOR affinity compared to 1 [3]: 6 fold |
| COC(=O)[C@@H]1C[C@H](OC(=O)/C=C/c2ccc(OC)cc2)C(=O)[C@H]2[C@@]1(C)CC[C@H]1C(=O)O[C@H](c3ccoc3)C[C@]21C [5c, 2-O-(4″-Methoxycinnamoyl)salvinorin B] | >74 | >74 |  |
| COC(=O)[C@@H]1C[C@H](OC(=O)/C=C/c2ccc([N+](=O)[O-])cc2)C(=O)[C@H]2[C@@]1(C)CC[C@H]1C(=O)O[C@H](c3ccoc3)C[C@]21C [5i, 2-O-(4″-Nitrocinnamoyl)salvinorin B] | >35 | >35 |  |

From PMC4162805 (European journal of medicinal chemistry, 2014)
